Test results taken from US11970498B2, “CDK2 inhibitors” (BLUEPRINT MEDICINES CORPORATION, priority 2021, dated 2024).

What was measured:
CDK2/Cyclin E = CDK2/Cyclin E (Homo sapiens, UniProt P24941); experiment: CDK2/Cyclin E biochemical phosphorylation assay (Caliper mobility shift); settings: apparent IC50; 1.0 mM ATP or ATP Km; 1.25 nM enzyme; 25° C.; read-out: CDK2/cyclin E1 IC50
Procedure, shortened: (§1)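 Caliper electrophoretic separation of substrate and phosphopeptide gave apparent IC50s. Enzymes: CDK1/Cyclin B1 GST-tag 1.5 nM, CDK2/Cyclin E 1.25 nM; ATP 1.0 mM or at Km; 7.5 µM FL-peptide; pH 7.5 HEPES buffer, 1% DMSO; room temperature until 10–20% phosphorylated, then EDTA quench.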

CDK1/Cyclin B1, GST-tag = target: T1, CDK1/Cyclin B1, GST-tag (Homo sapiens, UniProt P06493); experiment: CDK1/Cyclin B1 biochemical phosphorylation assay (Caliper mobility shift); settings: apparent IC50; 1.0 mM ATP or ATP Km; 1.5 nM enzyme; 25° C.
T1 construct: GST
Procedure, shortened: as §1

T1 sequence (P06493 whole entry): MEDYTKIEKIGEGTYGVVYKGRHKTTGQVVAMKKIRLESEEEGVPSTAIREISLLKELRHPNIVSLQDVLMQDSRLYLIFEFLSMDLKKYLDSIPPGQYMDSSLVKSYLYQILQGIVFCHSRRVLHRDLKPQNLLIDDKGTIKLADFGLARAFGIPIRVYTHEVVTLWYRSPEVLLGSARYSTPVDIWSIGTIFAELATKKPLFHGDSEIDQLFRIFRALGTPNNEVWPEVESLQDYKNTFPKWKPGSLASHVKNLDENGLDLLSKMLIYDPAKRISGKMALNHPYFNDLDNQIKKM
T1 sequence (P14635 whole entry partner): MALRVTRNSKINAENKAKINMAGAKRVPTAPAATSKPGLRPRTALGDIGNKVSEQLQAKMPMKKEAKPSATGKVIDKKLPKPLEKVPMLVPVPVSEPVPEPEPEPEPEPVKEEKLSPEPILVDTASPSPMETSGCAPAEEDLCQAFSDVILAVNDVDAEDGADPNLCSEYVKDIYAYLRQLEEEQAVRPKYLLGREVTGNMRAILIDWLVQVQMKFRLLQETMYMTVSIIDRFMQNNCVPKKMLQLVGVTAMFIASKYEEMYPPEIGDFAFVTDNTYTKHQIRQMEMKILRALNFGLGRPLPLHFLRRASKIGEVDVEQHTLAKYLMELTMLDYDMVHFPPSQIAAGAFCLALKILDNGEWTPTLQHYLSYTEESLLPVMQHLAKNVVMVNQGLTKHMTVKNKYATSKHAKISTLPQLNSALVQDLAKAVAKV

IC50 (CDK2/Cyclin E) | IC50 (CDK1/Cyclin B1, GST-tag) | SMILES
0.03 to 0.1 µM | ≥ 0.5 µM | FC(F)Oc1cc(Nc2cnc3cnn([C@H](C4CCOCC4)C4CC4)c3n2)n[nH]1 (single isomer, unassigned) [Example 158, (R)-1-(cyclopropyl(tetrahydro-2H-pyran-4-yl)methyl)-N-(5-(difluoromethoxy)-1H-pyrazol-3-yl)-1H-pyrazolo[3,4-b]pyrazin-6-amine or (S)-1-(cyclopropyl(tetrahydro-2H-pyran-4-yl)methyl)-N-(5-(difluoromethoxy)-1H-pyrazol-3-yl)-1H-pyrazolo[3,4-b]pyrazin-6-amine]
≤ 0.01 µM | ≥ 0.5 µM | FC(F)Oc1cc(Nc2cnc3cnn(C[C@H]4C[C@@H]4F)c3n2)n[nH]1 (single isomer, unassigned) [Example 159, N-(5-(difluoromethoxy)-1H-pyrazol-3-yl)-1-(((1R,2S)-2-fluorocyclopropyl)methyl)-1H-pyrazolo[3,4-b]pyrazin-6-amine or N-(5-(difluoromethoxy)-1H-pyrazol-3-yl)-1-(((1S,2R)-2-fluorocyclopropyl)methyl)-1H-pyrazolo[3,4-b]pyrazin-6-amine]
0.02 to 0.03 µM | ≥ 0.5 µM | FC(F)Oc1cc(Nc2cnc3cnn(C[C@H]4C[C@@H]4F)c3n2)n[nH]1 (single isomer, unassigned) [Example 160, N-(5-(difluoromethoxy)-1H-pyrazol-3-yl)-1-(((1S,2R)-2-fluorocyclopropyl)methyl)-1H-pyrazolo[3,4-b]pyrazin-6-amine or N-(5-(difluoromethoxy)-1H-pyrazol-3-yl)-1-(((1R,2S)-2-fluorocyclopropyl)methyl)-1H-pyrazolo[3,4-b]pyrazin-6-amine]
0.03 to 0.1 µM | ≥ 0.5 µM | FC(F)Oc1cc(Nc2cnc3cnn([C@H](c4ccccc4)C4COC4)c3n2)n[nH]1 (single isomer, unassigned) [Example 161, (S)-N-(5-(difluoromethoxy)-1H-pyrazol-3-yl)-1-(oxetan-3-yl(phenyl)methyl)-1H-pyrazolo[3,4-b]pyrazin-6-amine or (R)-N-(5-(difluoromethoxy)-1H-pyrazol-3-yl)-1-(oxetan-3-yl(phenyl)methyl)-1H-pyrazolo[3,4-b]pyrazin-6-amine]
> 0.1 µM | ≥ 0.5 µM | FC(F)Oc1cc(Nc2cnc3cnn([C@H](c4ccccc4)C4COC4)c3n2)n[nH]1 (single isomer, unassigned) [Example 162, (R)-N-(5-(difluoromethoxy)-1H-pyrazol-3-yl)-1-(oxetan-3-yl(phenyl)methyl)-1H-pyrazolo[3,4-b]pyrazin-6-amine or (S)-N-(5-(difluoromethoxy)-1H-pyrazol-3-yl)-1-(oxetan-3-yl(phenyl)methyl)-1H-pyrazolo[3,4-b]pyrazin-6-amine]
≤ 0.01 µM | ≥ 0.5 µM | FC(F)Oc1cc(Nc2cnc3cnn(C[C@@H]4CC4(F)F)c3n2)n[nH]1 (single isomer, unassigned) [Example 163, (S)-1-((2,2-difluorocyclopropyl)methyl)-N-(5-(difluoromethoxy)-1H-pyrazol-3-yl)-1H-pyrazolo[3,4-b]pyrazin-6-amine or (R)-1-((2,2-difluorocyclopropyl)methyl)-N-(5-(difluoromethoxy)-1H-pyrazol-3-yl)-1H-pyrazolo[3,4-b]pyrazin-6-amine]
0.01 to 0.02 µM | ≥ 0.5 µM | FC(F)Oc1cc(Nc2cnc3cnn(C[C@@H]4CC4(F)F)c3n2)n[nH]1 (single isomer, unassigned) [Example 164, (R)-1-((2,2-difluorocyclopropyl)methyl)-N-(5-(difluoromethoxy)-1H-pyrazol-3-yl)-1H-pyrazolo[3,4-b]pyrazin-6-amine or (S)-1-((2,2-difluorocyclopropyl)methyl)-N-(5-(difluoromethoxy)-1H-pyrazol-3-yl)-1H-pyrazolo[3,4-b]pyrazin-6-amine]
0.03 to 0.1 µM | ≥ 0.5 µM | C[C@]1(Cn2ncc3ncc(Nc4cc(OC(F)F)[nH]n4)nc32)CCOC1 (single isomer, unassigned) [Example 165, (R)-N-(5-(difluoromethoxy)-1H-pyrazol-3-yl)-1-((3-methyltetrahydrofuran-3-yl)methyl)-1H-pyrazolo[3,4-b]pyrazin-6-amine or (S)-N-(5-(difluoromethoxy)-1H-pyrazol-3-yl)-1-((3-methyltetrahydrofuran-3-yl)methyl)-1H-pyrazolo[3,4-b]pyrazin-6-amine]
≤ 0.01 µM | 0.1 to 0.5 µM | C[C@]1(Cn2ncc3ncc(Nc4cc(OC(F)F)[nH]n4)nc32)CCOC1 (single isomer, unassigned) [Example 166, (S)-N-(5-(difluoromethoxy)-1H-pyrazol-3-yl)-1-((3-methyltetrahydrofuran-3-yl)methyl)-1H-pyrazolo[3,4-b]pyrazin-6-amine or (R)-N-(5-(difluoromethoxy)-1H-pyrazol-3-yl)-1-((3-methyltetrahydrofuran-3-yl)methyl)-1H-pyrazolo[3,4-b]pyrazin-6-amine]
0.02 to 0.03 µM | ≥ 0.5 µM | FC(F)Oc1cc(Nc2cnc3cnn(C[C@@]4(F)CCOC4)c3n2)n[nH]1 (single isomer, unassigned) [Example 167, (S)-N-(5-(difluoromethoxy)-1H-pyrazol-3-yl)-1-((3-fluorotetrahydrofuran-3-yl)methyl)-1H-pyrazolo[3,4-b]pyrazin-6-amine or (R)-N-(5-(difluoromethoxy)-1H-pyrazol-3-yl)-1-((3-fluorotetrahydrofuran-3-yl)methyl)-1H-pyrazolo[3,4-b]pyrazin-6-amine]
0.03 to 0.1 µM | ≥ 0.5 µM | FC(F)Oc1cc(Nc2cnc3cnn(C[C@@]4(F)CCOC4)c3n2)n[nH]1 (single isomer, unassigned) [Example 168, (R)-N-(5-(difluoromethoxy)-1H-pyrazol-3-yl)-1-((3-fluorotetrahydrofuran-3-yl)methyl)-1H-pyrazolo[3,4-b]pyrazin-6-amine or (S)-N-(5-(difluoromethoxy)-1H-pyrazol-3-yl)-1-((3-fluorotetrahydrofuran-3-yl)methyl)-1H-pyrazolo[3,4-b]pyrazin-6-amine]
0.02 to 0.03 µM | ≥ 0.5 µM | N#C[C@@]1(Cn2ncc3ncc(Nc4cc(OC(F)F)[nH]n4)nc32)CCOC1 (single isomer, unassigned) [Example 169, (S)-3-((6-((5-(difluoromethoxy)-1H-pyrazol-3-yl)amino)-1H-pyrazolo[3,4-b]pyrazin-1-yl)methyl)tetrahydrofuran-3-carbonitrile or (R)-3-((6-((5-(difluoromethoxy)-1H-pyrazol-3-yl)amino)-1H-pyrazolo[3,4-b]pyrazin-1-yl)methyl)tetrahydrofuran-3-carbonitrile]
> 0.1 µM | ≥ 0.5 µM | N#C[C@@]1(Cn2ncc3ncc(Nc4cc(OC(F)F)[nH]n4)nc32)CCOC1 (single isomer, unassigned) [Example 170, (R)-3-((6-((5-(difluoromethoxy)-1H-pyrazol-3-yl)amino)-1H-pyrazolo[3,4-b]pyrazin-1-yl)methyl)tetrahydrofuran-3-carbonitrile or (S)-3-((6-((5-(difluoromethoxy)-1H-pyrazol-3-yl)amino)-1H-pyrazolo[3,4-b]pyrazin-1-yl)methyl)tetrahydrofuran-3-carbonitrile]
0.01 to 0.02 µM | ≥ 0.5 µM | O[C@H]1CC[C@@H](Cn2ncc3ncc(Nc4cc(OC(F)F)[nH]n4)nc32)CC1 (single isomer, unassigned) [Example 171, (1s,4s)-4-((6-((5-(difluoromethoxy)-1H-pyrazol-3-yl)amino)-1H-pyrazolo[3,4-b]pyrazin-1-yl)methyl)cyclohexan-1-ol or (1r,4r)-4-((6-((5-(difluoromethoxy)-1H-pyrazol-3-yl)amino)-1H-pyrazolo[3,4-b]pyrazin-1-yl)methyl)cyclohexan-1-ol]
0.01 to 0.02 µM | ≥ 0.5 µM | O[C@H]1CC[C@@H](Cn2ncc3ncc(Nc4cc(OC(F)F)[nH]n4)nc32)CC1 (single isomer, unassigned) [Example 172, (1r,4r)-4-((6-((5-(difluoromethoxy)-1H-pyrazol-3-yl)amino)-1H-pyrazolo[3,4-b]pyrazin-1-yl)methyl)cyclohexan-1-ol or (1s,4s)-4-((6-((5-(difluoromethoxy)-1H-pyrazol-3-yl)amino)-1H-pyrazolo[3,4-b]pyrazin-1-yl)methyl)cyclohexan-1-ol]
0.02 to 0.03 µM | ≥ 0.5 µM | C[C@@H](c1cnccc1F)n1ncc2ncc(Nc3cc(OC(F)F)[nH]n3)nc21 (single isomer, unassigned) [Example 173, (S)-N-(5-(difluoromethoxy)-1H-pyrazol-3-yl)-1-(1-(4-fluoropyridin-3-yl)ethyl)-1H-pyrazolo[3,4-b]pyrazin-6-amine or (R)-N-(5-(difluoromethoxy)-1H-pyrazol-3-yl)-1-(1-(4-fluoropyridin-3-yl)ethyl)-1H-pyrazolo[3,4-b]pyrazin-6-amine]
> 0.1 µM | ≥ 0.5 µM | C[C@@H](c1cnccc1F)n1ncc2ncc(Nc3cc(OC(F)F)[nH]n3)nc21 (single isomer, unassigned) [Example 174, (R)-N-(5-(difluoromethoxy)-1H-pyrazol-3-yl)-1-(1-(4-fluoropyridin-3-yl)ethyl)-1H-pyrazolo[3,4-b]pyrazin-6-amine or (S)-N-(5-(difluoromethoxy)-1H-pyrazol-3-yl)-1-(1-(4-fluoropyridin-3-yl)ethyl)-1H-pyrazolo[3,4-b]pyrazin-6-amine]
